These results are taken from patent US4897254A, “Radioactive compositions for the treatment of calcific tumors” (priority 1987, dated 1990).

For series [1] the following is noted: cited from earlier work.
Series [2] is described as follows: two-hour rat biodistribution after tail vein injection (NaI scintillation counting of dissected tissues). The settings on record: in vivo. An excerpt: Quantitative biodistributions were obtained by injecting 50-100 microliters of the composition into the tail vein of unanesthetized male Sprague Dawley rats. The rats were then placed in cages lined with absorbent paper in order to collect all urine excreted prior to sacrifice. After a given period of time, the rats were sacrificed by cervical dislocation and the various tissues dissected. The samples were then rinsed with saline, blotted dry on absorbent paper and weighed.

The conditions of series [3]: radionuclide; cited from earlier work.
Where [4] appears, read: patients with metastatic bone lesions.

As usually defined, the half-life is the time in which the quantity being followed falls by half.

Take `NC(c1ccc(O)c([131I])c1)(P(=O)(O)O)P(=O)(O)O` [α-amino-(3-iodo-4-hydroxybenzylidene)diphosphonate]: the possible metabolite entry in series [1] (in vivo) is given as “iodide as one of the possible metabolites”.

For “Sm-153-diethylenetriaminepentaacetic acid [Sm-153-DTPA]”, the “skeletal uptake (in words)” value in series [2] is recorded as “low skeletal uptake”.

In the case of “Sm-153-nitrilotriacetic acid [Sm-153-NTA]”, the “liver uptake (in words)” value in series [2] is on record as “high liver uptake”.

In the case of Strontium-89, in series [1] (setting [4]), the blood levels result is on record as “high blood levels” and the “lesion to normal bone ratios” value is reported as “low lesion to normal bone ratios”. Moreover, in series [3], the half-life is reported as 50.4 days.
